Measured values reported in patent publication US8188059B2, “Compounds and methods for modulating expression of GCGR” (Isis Pharmaceuticals, Inc., priority 2006, dated 2012).
Strand notation (5' to 3'): a small letter for the sugar, then the base; units joined by * are phosphorothioate-linked, units joined directly phosphodiester-linked; [ ] holds rarer units or linkages, { } end groups; capitals alone tell only the bases. e = 2'-O-(2-methoxyethyl) (MOE); [5mC] = 5-methylcytosine; d = 2'-deoxy (DNA)

What was measured:
[1] = test system: rat SGLT2 mRNA; assay: Rat SGLT2 mRNA levels in kidney, 1-10-1 gapmers at 250 nmol/kg, Sprague-Dawley rats (Example 14, Table 66); type: in vivo; settings: for % change in SGLT2 expression relative to saline: 250 nmol/kg i.p. twice per week for three weeks, Sprague-Dawley rats, kidney
Procedure: The effect of the above 1-10-1gapmers (see Table 64 above) on rat SGLT2 mRNA levels. Data are taken from four experiments in which male Sprague-Dawley rats (170-200 g) were dosed twice per week for three weeks with 250 nmol/kg given by intraperitoneal injection. Rats were sacrificed 48 hours following last administration and evaluated for SGLT2 mRNA levels in kidney. Target levels were determined by RT, real-time PCR as described by other examples herein. PCR results were normalized to an internal ISIS control.

[2] = test system: ApoB mRNA; assay: ApoB mRNA level in liver of Balb/c mice, i.p. twice per week for three weeks (Example 3, Table 29); type: in vivo, mouse; settings: for ApoB mRNA level: Table 30 (rounded); for % ApoB mRNA Level (relative to saline control): liver
Procedure: Prior to quantitative PCR analysis, primer-probe sets specific to the target gene being measured were evaluated for their ability to be “multiplexed” with a GAPDH amplification reaction. After isolation the RNA is subjected to sequential reverse transcriptase (RT) reaction and real-time PCR, both of which are performed in the same well. RT and PCR reagents were obtained from Invitrogen Life Technologies (Carlsbad, Calif.). […] The RT reaction was carried out by incubation for 30 minutes at 48° C. Following a 10 minute incubation at 95° C. to activate the […]® Taq, 40 cycles of a two-step PCR protocol were carried out: 95° C. for 15 seconds (denaturation) followed by 60° C. for 1.5 minutes (annealing/extension).
(§1) Antisense compound doses included 2.4, 1.2, 0.6, 0.3 and 0.15 μmol/kg. For antisense compounds 14 nucleotides in length, these doses equate to approximately 12, 6, 3, 1.5 or 0.75 mg/kg, respectively. Shown in Table 25 are the sequences and motifs of the antisense compounds used in this study. […] Bolded residues indicate 2′-O-methoxyethyl moieties and italicized residues indicate methyleneoxy (4′-CH2—O-2′) BNAs. The internucleoside linkages of each compound are phosphorothioate throughout. All cytosine residues of ISIS 147764 and ISIS 372938 are replaced by 5-methyl cytosines. For ISIS 387462, only the cytosine residue in the wing of the compound is replaced by 5-methyl cytosine. ApoB antisense compounds are targeted to publicly available ApoB-100 sequences, including Genbank Accession No. XM—137955.5 (SEQ ID NO: 2).
(§2) Forty-eight hours following the final injection, mice were sacrificed to evaluate transaminases (Table 26); liver and kidney weight (Table 27); triglyceride, LDL, HDL and free fatty acid levels (Table 28); target mRNA level in liver (Table 29); target protein level in plasma; and oligonucleotide tissue concentration (Table 30). These endpoints were determined using methods described herein and well known to those of ordinary skill in the art.

[3] = Liver and kidney weight, total body weight and food consumption (Example 3, Table 27); type: in vivo, mouse; settings: Balb/c mice
Procedure: as §1, §2

[4] = Triglyceride, total cholesterol, HDL, LDL, free fatty acid and glucose levels (Example 3, Table 28); type: in vivo, mouse; set-up: Free Fatty Acid (FFA): unit not given here; settings: Balb/c mice
Procedure: as §1, §2
Glucose levels also were similar among all treatment groups.

[5] = Full-length and total antisense compound tissue concentration in liver and kidney (Example 3, Table 30); type: in vivo, mouse; settings: Balb/c mice, 2.4 μmol/kg i.p. twice per week for three weeks
Procedure: as §1, §2
To determine whether the observed increase in efficiency with the methyleneoxy (4′-CH2—O-2′) BNA gapmer is due to an increase in oligonucleotide accumulation, full-length and total oligonucleotide concentration in the liver and kidney were determined.

[6] = ALT and AST levels, Balb/c mice (Example 3, Table 26); type: in vivo, mouse; settings: 48 h after final injection
Procedure: as §1, §2

[7] = test system: mouse SGLT2 mRNA; assay: Mouse SGLT2 mRNA levels in kidney, 1-10-1 MOE gapmers, Balb/c mice (Example 14, Table 65); type: in vivo
Procedure: The short antisense compounds were analyzed for their effect on mouse SGLT2 mRNA levels. Data was taken from three experiments in which Male 6-week old Balb/c mice were dosed twice per week for two weeks with 450, 150, or 50 nmol/kg of one of the above 1-10-1 MOE gapmers given by intraperitoneal injection. Mice were sacrificed 48 hours following last administration and evaluated for SGLT2 mRNA levels in kidney. Target levels were determined by RT, real-time PCR as described by other examples herein. PCR results were normalized to an internal ISIS control.

[8] = test system: mouse SGLT2 mRNA; assay: Mouse SGLT2 mRNA levels in kidney, additional 1-10-1 and 2-8-2 MOE gapmers, Balb/c mice (Example 15, Table 68); type: in vivo
Procedure: 1-10-1 and 2-8-2 MOE gapmer short antisense compounds were designed to target different regions of the mouse SGLT2 RNA but have complementarity across species. […] All cytidine residues are 5-methylcytidines.
The short antisense compounds were analyzed for their effect on mouse SGLT2 mRNA levels in vivo. Data was taken from three experiments in which male 6-week old Balb/c mice were dosed twice per week for three weeks with 0.5, 0.1, or 0.02 umol/kg of either a 1-10-1 or 2-8-2 MOE gapmer given by intraperitoneal injection. Mice were sacrificed 48 hours following last administration and evaluated for SGLT2 levels in kidney. Target levels were determined by RT, real-time PCR as described by other examples herein. PCR results were normalized to an internal ISIS control.

[9] = test system: GCGR mRNA; assay: GCGR mRNA levels in liver and estimated ED50, C57/BL6 mice, single i.p. dose (Example 5, Tables 44, 45); type: in vivo, mouse
Procedure: Eight-week old male C57/BL6 mice (Jackson Laboratory, Bar Harbor, Me.) were administered a single dose of GCGR antisense compound by intraperitonel (i.p.) injection at a concentration of 10, 3.2, 1, and 0.32 μmol·kg. Each dose group consisted of four animals. Shown in Table 43 are the sequences, motifs and conjugates of the GCGR antisense compounds used in this study. Bolded residues indicate 2′-O-methoxyethyl (2′-MOE) modifications and the italicized residues indicate methyleneoxy (4′-CH2—O-2′) BNA modifications. All antisense compounds comprise phosphorothioate internucleoside linkages throughout and each cytosine is replaced with 5-methylcytosine. GCGR antisense compounds target published GCGR nucleic acids, including Genbank Accession No. BC031885.1 (SEQ ID NO: 7).
To determine whether the phenotypic changes shown above correlated with a decrease in GCGR mRNA, treated animals were evaluated for levels of target mRNA in liver by RT, real time PCR according to methods described herein. Table 44 show results from direct comparisons of the antisense compounds targeting GCGR nucleic acid for their effect on target expression. Results are expressed as percent of saline control.

[10] = test system: monkey GCGR mRNA; assay: Antisense inhibition of GCGR in primary monkey hepatocytes, 25-200 nM (Example 21, Table 80); type: cell-based; settings: relative to untreated control cells
Procedure: Additional short antisense compounds targeted to a GCGR nucleic acid were tested for their effects on monkey GCGR mRNA in vitro. Cultured primary monkey hepatocytes were treated as described herein with 25, 50, 100 or 200 nM of short antisense compound. After the treatment period, RNA was isolated from the cells and GCGR mRNA levels were measured by quantitative real-time PCR, as described herein. GCGR mRNA levels were adjusted according to total RNA content as measured by RIBOGREEN®. Results are presented in Table 80 as percent reduction in GCGR mRNA, relative to untreated control cells.

[11] = 2.4 μmol/kg i.p. twice per week for three weeks
[12] = 0.15 μmol/kg i.p. twice per week for three weeks
[13] = 0.3 μmol/kg i.p. twice per week for three weeks
[14] = 0.6 μmol/kg i.p. twice per week for three weeks
[15] = 1.2 μmol/kg i.p. twice per week for three weeks

ISIS 381408: SGLT2; 1-10-1 MOE gapmer (antisense TACCGAACACCT; sugars from the 5' end e1 d10 e1, backbone and methylation of C not given here)
% change in SGLT2 expression relative to saline [1]: −5%
expression of SGLT2 in vivo ([1]; rat kidney, 250 nmol/kg twice per week for three weeks): Activity of ISIS 381408 has been shown

147764 (antisense eG*eT*e[5mC]*e[5mC]*e[5mC]*dT*dG*dA*dA*dG*dA*dT*dG*dT*d[5mC]*eA*eA*eT*eG*e[5mC]) [compound 147764]
ApoB mRNA level [2, 11]: 58 % of saline control
% ApoB mRNA Level (relative to saline control) [2, 11]: 57.7%
Kidney Weight [3, 11]: 105 % of saline control
Liver Weight [3, 11]: 102 % of saline control
Free Fatty Acid (FFA) [4, 11]: 1.29
HDL [4, 11]: 81.3 mg/dL
LDL [4, 11]: 10.3 mg/dL
Total Cholesterol (CHOL) [4, 11]: 107 mg/dL
Triglyceride (TRIG) [4, 11]: 167 mg/dL
Kidney Full-Length antisense compound tissue concentration [5]: 28.6 µM
Kidney Total antisense compound tissue concentration [5]: 33.5 µM
Liver Full-Length antisense compound tissue concentration [5]: 22.9 µM
Liver Total antisense compound tissue concentration [5]: 31.3 µM
ALT [6, 11]: 29.5 IU/L
AST [6, 11]: 64.0 IU/L

372938 (antisense eG*eG*dT*dA*d[5mC]*dA*dT*dG*dG*dA*dA*dG*eT*e[5mC]) [compound 372938]
ApoB mRNA level [2, 11]: 77 % of saline control
% ApoB mRNA Level (relative to saline control) [2, 12]: 93.1%
% ApoB mRNA Level (relative to saline control) [2, 13]: 92.6%
% ApoB mRNA Level (relative to saline control) [2, 14]: 87.3%
% ApoB mRNA Level (relative to saline control) [2, 15]: 90.0%
% ApoB mRNA Level (relative to saline control) [2, 11]: 77.0%
Kidney Weight [3, 12]: 98 % of saline control
Liver Weight [3, 12]: 96 % of saline control
Kidney Weight [3, 13]: 107 % of saline control
Liver Weight [3, 13]: 91 % of saline control
Kidney Weight [3, 14]: 112 % of saline control
Liver Weight [3, 14]: 96 % of saline control
Kidney Weight [3, 15]: 101 % of saline control
Liver Weight [3, 15]: 90 % of saline control
Kidney Weight [3, 11]: 100 % of saline control
Liver Weight [3, 11]: 100 % of saline control
Free Fatty Acid (FFA) [4, 12]: 1.57
HDL [4, 12]: 82.8 mg/dL
LDL [4, 12]: 10.8 mg/dL
Total Cholesterol (CHOL) [4, 12]: 106 mg/dL
Triglyceride (TRIG) [4, 12]: 151 mg/dL
Free Fatty Acid (FFA) [4, 13]: 1.53
HDL [4, 13]: 84.3 mg/dL
LDL [4, 13]: 11.0 mg/dL
Total Cholesterol (CHOL) [4, 13]: 109 mg/dL
Triglyceride (TRIG) [4, 13]: 138 mg/dL
Free Fatty Acid (FFA) [4, 14]: 1.66
HDL [4, 14]: 83.3 mg/dL
LDL [4, 14]: 10.8 mg/dL
Total Cholesterol (CHOL) [4, 14]: 110 mg/dL
Triglyceride (TRIG) [4, 14]: 184 mg/dL
Free Fatty Acid (FFA) [4, 15]: 1.70
HDL [4, 15]: 77.8 mg/dL
LDL [4, 15]: 9.5 mg/dL
Total Cholesterol (CHOL) [4, 15]: 101 mg/dL
Triglyceride (TRIG) [4, 15]: 136 mg/dL
Free Fatty Acid (FFA) [4, 11]: 1.28
HDL [4, 11]: 79.0 mg/dL
LDL [4, 11]: 10.3 mg/dL
Total Cholesterol (CHOL) [4, 11]: 104 mg/dL
Triglyceride (TRIG) [4, 11]: 153 mg/dL
Kidney Full-Length antisense compound tissue concentration [5]: 32.0 µM
Kidney Total antisense compound tissue concentration [5]: 34.0 µM
Liver Full-Length antisense compound tissue concentration [5]: 5.49 µM
Liver Total antisense compound tissue concentration [5]: 7.76 µM
ALT [6, 12]: 28.3 IU/L
AST [6, 12]: 50.3 IU/L
ALT [6, 13]: 28.3 IU/L
AST [6, 13]: 60.0 IU/L
ALT [6, 14]: 28.0 IU/L
AST [6, 14]: 79.3 IU/L
ALT [6, 15]: 24.8 IU/L
AST [6, 15]: 49.5 IU/L
ALT [6, 11]: 26.0 IU/L
AST [6, 11]: 49.0 IU/L

ISIS 379702: targeted to SGLT2 (antisense eG*d[5mC]*dA*d[5mC]*dA*d[5mC]*dA*dG*d[5mC]*dT*dG*e[5mC])
% change in SGLT2 expression relative to saline ([7]; 50 nmol/kg i.p. twice per week for two weeks): −52.5%
% change in SGLT2 expression relative to saline ([7]; 150 nmol/kg i.p. twice per week for two weeks): −72.5%
% change in SGLT2 expression relative to saline ([7]; 450 nmol/kg i.p. twice per week for two weeks): −75%
% change in SGLT2 expression relative to saline [1]: −25%
% change in SGLT2 expression relative to saline ([8]; 0.02 umol/kg i.p. twice per week for three weeks): −40%
% change in SGLT2 expression relative to saline ([8]; 0.1 umol/kg i.p. twice per week for three weeks): −65%
% change in SGLT2 expression relative to saline ([8]; 0.5 umol/kg i.p. twice per week for three weeks): −70%

396147 (antisense e[5mC]*eT*eT*eG*eG*dG*d[5mC]*dA*dT*dG*d[5mC]*dT*d[5mC]*dG*dT*e[5mC]*eA*eG*eT*e[5mC]) [compound 396147]
GCGR mRNA levels in liver ([9]; 3.2 μmol/kg single i.p.): 68% of saline control
GCGR mRNA levels in liver ([9]; 10 μmol/kg single i.p.): 28% of saline control

396145 (antisense eA*eT*eG*eG*e[5mC]*dT*dT*d[5mC]*dT*d[5mC]*d[5mC]*dA*dT*d[5mC]*dA*eT*eA*eT*e[5mC]*e[5mC]) [compound 396145]
GCGR mRNA levels in liver ([9]; 3.2 μmol/kg single i.p.): 33% of saline control
GCGR mRNA levels in liver ([9]; 10 μmol/kg single i.p.): 8% of saline control

327131 (antisense eA*eT*eG*dT*dT*dG*dG*d[5mC]*d[5mC]*dG*dT*eG*eG*eT) [compound 327131]
percent reduction in GCGR mRNA ([10]; 25 nM): 0
percent reduction in GCGR mRNA ([10]; 50 nM): −8
percent reduction in GCGR mRNA ([10]; 100 nM): −36
percent reduction in GCGR mRNA ([10]; 200 nM): −36
